{"source": "patent US20250268967A1", "about": "“NUTRACEUTICAL COMPOUNDS USEFUL IN THE TREATMENT OF CORONAVIRUS DISEASE” (priority 2020, published 2025)", "key": {"[1]": {"test_system": "SARS-CoV-2", "assay": "In vitro antiviral assay, VeroE6 cells and Calu3 cells (cell line not separated in the statement)", "conditions": "for inhibition of the SARS-CoV-2 virus: cell line not specified (FIG. 2, FIG. 6)"}, "[2]": {"test_system": "SARS-CoV-2", "assay": "In vitro antiviral immunostaining assay in Vero E6 cells"}, "[3]": {"test_system": "SARS-CoV-2", "assay": "In vitro antiviral immunostaining assay in Calu-3 cells", "assay_type": "cell-based"}, "[4]": {"target": "T1, α-globulin (vitamin D-Binding Protein [DBP]) (Homo sapiens, UniProt P02774)", "T1 sequence (P02774 17-474)": "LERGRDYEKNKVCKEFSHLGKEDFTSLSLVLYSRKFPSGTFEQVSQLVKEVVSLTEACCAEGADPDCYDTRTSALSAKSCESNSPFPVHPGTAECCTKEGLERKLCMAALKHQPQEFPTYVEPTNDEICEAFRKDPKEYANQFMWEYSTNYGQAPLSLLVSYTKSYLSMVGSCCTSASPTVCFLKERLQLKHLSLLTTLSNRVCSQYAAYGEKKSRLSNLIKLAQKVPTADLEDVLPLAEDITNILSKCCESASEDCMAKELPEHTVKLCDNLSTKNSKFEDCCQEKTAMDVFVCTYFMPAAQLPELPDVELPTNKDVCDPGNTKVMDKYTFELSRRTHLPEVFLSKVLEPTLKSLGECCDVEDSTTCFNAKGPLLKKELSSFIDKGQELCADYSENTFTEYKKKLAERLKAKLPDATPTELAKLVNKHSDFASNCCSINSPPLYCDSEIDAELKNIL", "conditions": "binds weakly to α-globulin (DBP) after absorption via chylomicrons; cited from earlier work"}, "[5]": {"target": "COVID-19 protease (Severe acute respiratory syndrome coronavirus 2, UniProt P0DTD1)", "conditions": "molecular docking, in words; cited from earlier work"}, "[6]": {"test_system": "Calu-3 cells", "conditions": "in words"}, "[7]": {"assay": "in vitro", "conditions": "human"}, "[8]": {"test_system": "SARS-CoV-2", "assay": "microbe, parasite or virus in culture", "assay_type": "cell-based"}, "[9]": {"conditions": "infected patients, 60 mg daily for four months; in words; cited from earlier work"}, "[10]": {"conditions": "from three publications; read-out: cytotoxicity (CC50); cited from earlier work"}}, "note": "Like-named read-outs stand apart in the source and are kept apart here."}
{"smiles": "C=C1CC[C@H](O)C/C1=C/C=C1\\CCC[C@]2(C)[C@@H]([C@H](C)CCCC(C)C)CC[C@@H]12", "note": "[Vitamin D3, cholecalciferol]", "values": [{"measurement": "inhibition of the SARS-CoV-2 virus", "setting": "[1]", "value": "about 100%"}, {"measurement": "EC100", "setting": "[2]; Vero E 6 cells, SARS-CoV-2, in words", "value": "Achieved"}, {"measurement": "IC50", "setting": "[2]; VeroE6 cells, FIG. 2", "value": "~33.5", "unit": "µM"}, {"measurement": "IC50", "setting": "[3]; Severe acute respiratory syndrome coronavirus 2, Calu-3", "value": "~22.3", "unit": "µM"}, {"measurement": "protein binding", "setting": "[4]", "value": "50-80%"}]}
{"smiles": "[Zn]", "note": "[Zinc]", "values": [{"measurement": "cytotoxicity, as measured by cell viability", "setting": "[1]; FIG. 6, in words", "value": "not observed"}, {"measurement": "inhibition of the SARS-CoV-2 virus", "setting": "[1]", "value": "about 75%"}]}
{"smiles": "C[C@@H]1C(=O)O[C@H]2C[C@@]34[C@H]5C[C@@H](C(C)(C)C)[C@]36[C@@H](OC(=O)[C@@H]6O)O[C@@]4(C(=O)O5)[C@]21O", "note": "[Ginkgolide A]", "values": [{"measurement": "predicted binding affinity to the COVID-19 protease", "setting": "[5]", "value": "high binding affinity"}]}
{"smiles": "CC(C)=CCC[C@](C)(O)[C@@H]1CC=C(C)CC1", "note": "[Levomenol, α-(−)-bisabolol]", "values": [{"measurement": "cytotoxicity, as measured by inhibition of cell viability", "setting": "[6]", "value": "not observed"}, {"measurement": "CC50", "setting": "[7]", "value": 3, "unit": "µM"}, {"measurement": "selectivity index (SI)", "setting": "[8]; Calu-3 cells, from CC50 and EC50", "value": 26.1}, {"measurement": "EC50", "setting": "[8]; Severe acute respiratory syndrome coronavirus 2, Calu-3 cells infected with SARS-CoV-2, FIG. 4, read-out: EC50 (antiviral activity against SARS-CoV-2)", "value": 0.115, "unit": "µM"}, {"measurement": "inhibition of the virus", "setting": "[3]; Calu-3 cells infected with SARS-CoV-2, FIG. 3", "value": "about 60%"}]}
{"smiles": "CC1=C(/C=C/C(C)=C/C=C/C(C)=C/C=C/C=C(C)/C=C/C=C(C)/C=C/C2=C(C)CCCC2(C)C)C(C)(C)CCC1", "note": "[Beta Carotene, Beta-carotene]", "values": [{"measurement": "clinical toxicity", "setting": "[9]", "value": "No clinical toxicity was observed"}]}
{"smiles": "CCC(CC)COC(=O)[C@H](C)N[P@](=O)(OC[C@H]1O[C@@](C#N)(c2ccc3c(N)ncnn23)[C@H](O)[C@@H]1O)Oc1ccccc1", "note": "[Remdesivir]", "values": [{"measurement": "CC50", "setting": "[10]", "value": "> 100", "unit": "µM"}]}
